Source: ChEMBL document CHEMBL1146014, “Design and synthesis of selective alpha1B adrenoceptor antagonists” (Bioorg Med Chem Lett, 2006)

What was measured:
[1] = molecular target: T1, Alpha-1B adrenergic receptor (Rattus norvegicus, UniProt P15823); experiment: Displacement of [3H]prazosin from adrenergic alpha-1B receptor in rat liver membranes; format: cell membranes, Membrane
T1 sequence (P15823 whole entry): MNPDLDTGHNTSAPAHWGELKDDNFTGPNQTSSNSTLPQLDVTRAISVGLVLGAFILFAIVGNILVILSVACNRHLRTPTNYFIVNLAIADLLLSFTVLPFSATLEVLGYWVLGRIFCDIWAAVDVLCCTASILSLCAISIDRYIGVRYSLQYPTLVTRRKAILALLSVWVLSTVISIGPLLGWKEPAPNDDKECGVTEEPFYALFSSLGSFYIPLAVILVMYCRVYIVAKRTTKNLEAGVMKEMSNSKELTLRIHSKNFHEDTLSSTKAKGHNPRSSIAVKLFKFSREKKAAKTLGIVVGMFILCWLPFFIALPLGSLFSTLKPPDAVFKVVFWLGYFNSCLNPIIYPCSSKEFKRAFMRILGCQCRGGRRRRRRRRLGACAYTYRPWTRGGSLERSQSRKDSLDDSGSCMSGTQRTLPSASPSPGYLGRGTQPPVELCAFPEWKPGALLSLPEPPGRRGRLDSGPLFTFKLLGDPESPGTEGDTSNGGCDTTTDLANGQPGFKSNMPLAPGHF

[2] = molecular target: T2, Alpha-1A adrenergic receptor (Rattus norvegicus, UniProt P43140); experiment: Displacement of [3H]prazosin from adrenergic alpha-1A receptor in rat submaxillary gland membranes; format: cell membranes, Membrane
T2 sequence (P43140 whole entry): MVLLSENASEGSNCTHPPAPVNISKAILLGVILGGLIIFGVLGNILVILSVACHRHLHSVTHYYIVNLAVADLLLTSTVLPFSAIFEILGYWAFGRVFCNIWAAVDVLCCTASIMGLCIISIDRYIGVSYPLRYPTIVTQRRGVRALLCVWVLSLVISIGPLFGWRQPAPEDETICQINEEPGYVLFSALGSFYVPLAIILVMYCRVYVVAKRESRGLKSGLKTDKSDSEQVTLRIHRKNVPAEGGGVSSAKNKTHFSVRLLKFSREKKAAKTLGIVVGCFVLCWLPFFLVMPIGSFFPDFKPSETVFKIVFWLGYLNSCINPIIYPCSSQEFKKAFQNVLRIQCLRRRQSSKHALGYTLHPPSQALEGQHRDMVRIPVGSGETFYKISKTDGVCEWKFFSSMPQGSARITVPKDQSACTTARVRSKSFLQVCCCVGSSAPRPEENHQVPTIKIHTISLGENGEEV

[3] = molecular target: T3, Alpha-1D adrenergic receptor (Homo sapiens, UniProt P25100); experiment: Binding affinity to human adrenergic Alpha-1D receptor
T3 sequence (P25100 whole entry): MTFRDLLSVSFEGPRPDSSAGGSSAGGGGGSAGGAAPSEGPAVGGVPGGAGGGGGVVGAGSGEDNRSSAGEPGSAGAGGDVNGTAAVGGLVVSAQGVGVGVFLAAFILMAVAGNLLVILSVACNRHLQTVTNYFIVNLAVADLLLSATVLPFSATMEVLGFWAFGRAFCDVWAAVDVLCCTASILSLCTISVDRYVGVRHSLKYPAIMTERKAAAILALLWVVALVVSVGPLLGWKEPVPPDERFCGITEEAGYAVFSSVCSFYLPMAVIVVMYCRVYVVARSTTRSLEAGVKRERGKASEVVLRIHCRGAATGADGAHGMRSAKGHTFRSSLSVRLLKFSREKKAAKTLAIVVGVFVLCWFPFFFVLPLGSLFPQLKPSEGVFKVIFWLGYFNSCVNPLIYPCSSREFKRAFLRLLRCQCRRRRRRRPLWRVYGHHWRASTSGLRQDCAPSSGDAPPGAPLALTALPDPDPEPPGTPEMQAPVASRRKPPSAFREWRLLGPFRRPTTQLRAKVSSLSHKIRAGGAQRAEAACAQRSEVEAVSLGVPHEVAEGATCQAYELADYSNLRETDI

[4] = molecular target: T4, Adrenergic receptor alpha-2 (Rattus norvegicus, UniProt P22086+P19328+P22909); experiment: Binding affinity to rat adrenergic alpha2 receptor; format: protein assay
T4 sequence (P22086 whole entry): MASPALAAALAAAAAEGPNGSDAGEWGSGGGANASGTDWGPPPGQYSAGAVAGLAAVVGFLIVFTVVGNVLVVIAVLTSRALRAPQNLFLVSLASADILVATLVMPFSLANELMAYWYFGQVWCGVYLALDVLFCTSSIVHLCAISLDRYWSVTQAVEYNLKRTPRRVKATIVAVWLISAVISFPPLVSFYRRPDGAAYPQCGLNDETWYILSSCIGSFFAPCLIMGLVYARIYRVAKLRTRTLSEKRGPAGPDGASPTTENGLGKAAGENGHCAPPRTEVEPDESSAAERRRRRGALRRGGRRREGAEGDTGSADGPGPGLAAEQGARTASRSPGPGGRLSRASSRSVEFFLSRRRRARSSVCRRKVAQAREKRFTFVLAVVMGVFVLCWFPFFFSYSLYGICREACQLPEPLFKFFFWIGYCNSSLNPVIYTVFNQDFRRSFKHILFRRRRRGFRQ
T4 sequence (P19328 whole entry): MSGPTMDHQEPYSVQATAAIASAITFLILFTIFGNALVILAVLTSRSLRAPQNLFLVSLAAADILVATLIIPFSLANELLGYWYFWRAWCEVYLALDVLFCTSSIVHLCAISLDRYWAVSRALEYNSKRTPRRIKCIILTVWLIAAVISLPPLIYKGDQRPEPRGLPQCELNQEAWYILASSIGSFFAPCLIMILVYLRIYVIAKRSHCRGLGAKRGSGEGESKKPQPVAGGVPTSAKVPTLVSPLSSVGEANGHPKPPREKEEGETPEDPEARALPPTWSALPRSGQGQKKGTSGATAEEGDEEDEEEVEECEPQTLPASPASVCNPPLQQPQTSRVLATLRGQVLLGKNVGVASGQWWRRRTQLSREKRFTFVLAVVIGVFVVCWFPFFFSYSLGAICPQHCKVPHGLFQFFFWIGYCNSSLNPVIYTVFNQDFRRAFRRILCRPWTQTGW
T4 sequence (P22909 whole entry): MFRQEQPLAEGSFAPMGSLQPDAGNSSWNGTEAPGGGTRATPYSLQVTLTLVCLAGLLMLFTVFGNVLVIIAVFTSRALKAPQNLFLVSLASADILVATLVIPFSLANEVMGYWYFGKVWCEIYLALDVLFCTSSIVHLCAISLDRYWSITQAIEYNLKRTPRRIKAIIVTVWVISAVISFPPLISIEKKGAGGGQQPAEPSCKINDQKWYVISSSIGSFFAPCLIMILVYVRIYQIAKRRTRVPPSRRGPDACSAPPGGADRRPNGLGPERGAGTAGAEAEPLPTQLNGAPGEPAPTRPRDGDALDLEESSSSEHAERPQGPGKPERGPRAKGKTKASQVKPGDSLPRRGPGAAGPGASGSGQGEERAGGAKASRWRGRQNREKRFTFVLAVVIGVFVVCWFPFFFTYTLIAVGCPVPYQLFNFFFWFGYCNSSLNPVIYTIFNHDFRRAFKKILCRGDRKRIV

Adrenergic receptor beta = Adrenergic receptor beta (Rattus norvegicus, UniProt P18090+P10608+P26255); experiment: Binding affinity to rat adrenergic beta receptor; format: protein assay

Ki [1] | Ki [2] | Ki [3] | Ki [4] | Ki (Adrenergic receptor beta) | SMILES
1120 nM |  |  |  |  | c1ccc(CC2CCN(CCCN3CCCCC3)CC2)cc1
71 nM | 1900 nM |  |  |  | Cc1[nH]c2ccccc2c1C1CCN(CCCN2CCCCC2)CC1
1.1 nM | 56 nM |  |  |  | c1ccc2c(C3CCN(CCCCN4CCCCC4)CC3)c[nH]c2c1
60 nM | 480 nM |  |  |  | Cn1cc(C2CCN(CCCN3CCCCC3)CC2)c2ccccc21
 |  | 22 nM | 140 nM | > 1000 nM | Cl.Cl.Fc1ccc2c(C3CCN(CCCN4CCCCC4)CC3)c[nH]c2c1
7.7 nM | 60 nM |  |  |  | c1ccc2c(C3CCN(CCCN4CCCCC4)CC3)coc2c1
14 nM | 57 nM |  |  |  | c1ccc2c(C3CCN(CCCN4CCCCC4)CC3)noc2c1
16 nM | 690 nM |  |  |  | Fc1ccc2[nH]cc(C3CCN(CCCN4CCCCC4)CC3)c2c1
3 nM | 120 nM | 69 nM | 370 nM | > 1000 nM | Cl.Cl.c1ccc2c(C3CCN(CCCN4CCCCC4)CC3)c[nH]c2c1
 |  | 37 nM | 355 nM | > 1000 nM | Cl.Cl.c1ccc2c(C3CCN(CCCCCN4CCCCC4)CC3)c[nH]c2c1

SMILES | Ki [1] | Ki [2] | Ki [3] | Ki [4] | Ki (Adrenergic receptor beta)
Oc1nc2ccccc2n1C1CCN(CCCN2CCCCC2)CC1 | 70 nM | 900 nM |  |  | 
